What all share (assay type): cell-based
The subject of test [1] is Pseudomonas aeruginosa (ATCC 9027). To be noted: Pathogenic; carbon microarray plate, OD 600 nm, 36 hr, 33° C.; positive = more than 0.05 OD units above zero; blank cell = not utilized. The text has this: (§1) After creating desired ratios of various commensal skin bacteria in a healthy skin microbiome, 188 different carbohydrate sources were screened as the next step in determining potential prospects for skin microbiota balancing agents. The screening process was set up to determine which carbohydrate sources promoted commensal and/or pathogenic bacteria as well as to obtain individual and combinations of carbohydrate sources that could serve as microbiota balancing agents that can support or maintain the healthy proportions of commensal skin bacteria of Corynebacterium, Staphylococcus, and Micrococcus. The screening was conducted utilizing Biolog phenotype microarray plates (Hayward, Calif.). Table 1 provides a coded list of the commensal and pathogenic skin bacteria that the carbohydrates were screened against.
(§2) The Bacteria Codes B, D, E, I, and J are commensal bacteria and are shaded in Table 2 for references purposes. The bacteria codes were each placed in a carbon microarray plate and screened through the Carbohydrate Screening Test Method, as described in the Test Methods section herein. If a particular bacteria code utilized a specific carbohydrate source as described in the Carbohydrate Screening Test Method, then the corresponding cell in Table 2 was marked with a Y (short for “Yes”).
(§3) The study employed 10 representative skin bacteria; Staphylococcus epidermidis ATCC 14990, Staphylococcus epidermidis M23864:W2, Staphylococcus aureus ATCC 6538, Staphylococcus aureus ATCC 25904 (Newman), Pseudomonas aeruginosa ATCC 9027, Micrococcus luteus ATCC […], Micrococcus luteus SK58, Klebsiella pneumoniae ATCC BAA-2146, Corynebacterium amycolatum SK46, and Corynebacterium minutissimum ATCC 23348. Cultures were started from freezer bead stocks by placing a single bead into 20 mL of tryptic soy broth (TSB) for all organisms except C. amycolatum SK46 and C. minutissimum ATCC 23348, which were placed into brain heart infusion (BHI) broth. Cultures were grown for about 24 hr at 37° C. except M. luteus ATCC 49732 and M. luteus SK58, which were grown at 30° C. A passage of the culture was made using a sterile swab and streaked onto two M9*2 agar plates to prepare the incubated culture for the phenotype microarray pate according to Table 4. Plates were incubated for about 24 hr at 37° C. except for M. luteus ATCC 49732 and M. luteus SK58, which were incubated at 30° C. for 24 hr.
(§4) All cultures were harvested and washed before inoculation into the carbon microarray plate (BiOLOG, Hayward Calif.), with Biolog Plates PM1 and PM2 each having a source definition of Carbon. The bacteria on the M9*2 agar was suspended via agitation with an inoculating loop in 1 mL of M9*1 media for collection in a 1.7 mL micro centrifuge tube, as noted in Table 4. The bacteria was suspended again in M9*1 media, agitated, and collected into the same 1.7 mL microcentrifuge tube used in the previous step. The tube was centrifuged for 5 minutes at 4,000×G, supernatant decanted, the pellet was resuspended in 1 mL of M9*1 media, and vortex. This washing process was repeated for a total of 4 times.
A tenfold dilution in M9*1 media was performed using 1 mL of the washed bacterial culture. Of the tenfold dilution 200 μL was placed in an untreated 96-well plate (Falcon, Pasadena Tx.) for an initial optical density (OD) reading at a wavelength of 600 nm. The OD was used to correlate to colony forming units (CFU) per milliliter by using linear regression lines for each organism.

For test [2], the system named is Klebsiella pneumoniae (ATCC BAA-2146). The note with it: Pathogenic; carbon microarray plate, OD 600 nm, 36 hr, 33° C.; positive = more than 0.05 OD units above zero; blank cell = not utilized.
Text: as §1
Table 2 provides the results of screening various carbohydrate sources against the commensal and pathogenic bacteria codes listed in Table 1. The Bacteria Codes B, D, E, I, and J are commensal bacteria and are shaded in Table 2 for references purposes. The bacteria codes were each placed in a carbon microarray plate and screened through the Carbohydrate Screening Test Method, as described in the Test Methods section herein. If a particular bacteria code utilized a specific carbohydrate source as described in the Carbohydrate Screening Test Method, then the corresponding cell in Table 2 was marked with a Y (short for “Yes”). […] Many of the carbohydrate sources were utilized by both commensal and pathogenic bacteria, and as such, would not provide an advantage for selective growth of the commensal bacteria. However, some of the carbohydrate sources were only used by commensal bacteria and were identified for further testing as described herein.
as §3, §4
A tenfold dilution in M9*1 media was performed using 1 mL of the washed bacterial culture. Of the tenfold dilution 200 μL was placed in an untreated 96-well plate (Falcon, Pasadena Tx.) for an initial optical density (OD) reading at a wavelength of 600 nm. The OD was used to correlate to colony forming units (CFU) per milliliter by using linear regression lines for each organism. […]

Test [3] concerns Corynebacterium jeikum (ATCC 33033). The test is described as follows: Carbohydrate Screening Test Method (Biolog phenotype microarray), Bacteria Code B. On the procedure:
The screening process was set up to determine which carbohydrate sources promoted commensal and/or pathogenic bacteria as well as to obtain individual and combinations of carbohydrate sources that could serve as microbiota balancing agents that can support or maintain the healthy proportions of commensal skin bacteria of Corynebacterium, Staphylococcus, and Micrococcus. The screening was conducted utilizing Biolog phenotype microarray plates (Hayward, Calif.). Table 1 provides a coded list of the commensal and pathogenic skin bacteria that the carbohydrates were screened against.
as §2
To do so, the respective microarray data for the 79 carbohydrate sources was run through the GrowthRates 2.1 program to obtain growth parameters, such as growth rates and maximum yield data as described by the Belingham Research Institute, Hall, B. G., H. Acar and M. Barlow. […] Mol. Biol. Evol. […] The max yield parameters generated were utilized to calculate ratios of tested commensal bacteria. The ratios calculated were compared back to the desired ratios identified above (Corynebacterium to Staphylococcus of 1.3, Corynebacterium to Micrococcus of 1.4, and Staphylococcus to Micrococcus of 1.1).
(§5) As an example of this methodology used to calculate the commensal bacteria ratios and the difference between the calculated ratios and the desired ratios, an example code from Table 3 will be described. […] The max yields were then used to calculate ratios the bacteria would reach in a co-culture.
A passage of the culture was made using a sterile swab and streaked onto two M9*2 agar plates to prepare the incubated culture for the phenotype microarray pate according to Table 4.
All cultures were harvested and washed before inoculation into the carbon microarray plate (BiOLOG, Hayward Calif.), with Biolog Plates PM1 and PM2 each having a source definition of Carbon. The bacteria on the M9*2 agar was suspended via agitation with an inoculating loop in 1 mL of M9*1 media for collection in a 1.7 mL micro centrifuge tube, as noted in Table 4.

In test [4] the test system is Micrococcus luteus (SK58). The test is described as follows: Carbohydrate Screening Test Method (Biolog phenotype microarray), Bacteria Code E. To be noted: Commensal; carbon microarray plate, OD 600 nm, 36 hr, 33° C.; positive = more than 0.05 OD units above zero; blank cell = not utilized.
Text: as §1, §2
To do so, the respective microarray data for the 79 carbohydrate sources was run through the GrowthRates 2.1 program to obtain growth parameters, such as growth rates and maximum yield data as described by the Belingham Research Institute, Hall, B. G., H. Acar and M. Barlow. 2014 Growth Rates Made Easy. Mol. Biol. Evol. 31:232-238 doi:10.1093/molbev/mst197. The max yield parameters generated were utilized to calculate ratios of tested commensal bacteria. The ratios calculated were compared back to the desired ratios identified above (Corynebacterium to Staphylococcus of 1.3, Corynebacterium to Micrococcus of 1.4, and Staphylococcus to Micrococcus of 1.1).
as §5

The mark [5] stands for this setting: Commensal, carbon microarray plate, OD 600 nm, 36 hr, 33° C., positive = more than 0.05 OD units above zero, blank cell = not utilized.

For the molecule `CO[C@@H]1O[C@H](CO)[C@@H](O)[C@H](O)[C@H]1O` [β-Methyl-D-Galactoside], the “Carbohydrate Screening Results, Bacteria Code F” value in test [1] is on record as “Y”. In test [2], the “Carbohydrate Screening Results, Bacteria Code C” value was “Y”. Take `C=C(CC(=O)O)C(=O)O` [Itaconic Acid]: the “Carbohydrate Screening Results, Bacteria Code F” value in test [1] was “Y”. For the molecule Gentiobiose, the “Carbohydrate Screening Results, Bacteria Code F” value in test [1] is recorded as “Y”. Further, the “Carbohydrate Screening Results, Bacteria Code C” value in test [2] is given as “Y”. `C[C@H](O)[C@H](O)[C@@H](O)[C@@H](O)C=O` [L-Rhamnose]: the “Carbohydrate Screening Results, Bacteria Code B” value in test [3] (setting [5]) is “Y”. The “Carbohydrate Screening Results, Bacteria Code C” value in test [2] is given as “Y”. Further, the “Carbohydrate Screening Results, Bacteria Code E” value in test [4] is reported as “Y”. For `O=C1CC[C@@H](C(=O)O)N1` [L-Pyroglutamic Acid], in test [1], the “Carbohydrate Screening Results, Bacteria Code F” value is on record as “Y”. Turning to `O=C1O[C@@H]([C@H](O)CO)[C@H](O)[C@H]1O` [D-Galactonic Acid-γ-Lactone], the “Carbohydrate Screening Results, Bacteria Code F” value in test [1] is “Y”. For the same molecule, the “Carbohydrate Screening Results, Bacteria Code C” value in test [2] was “Y”. As for `NC(=O)C[C@H](N)C(=O)O` [L-Asparagine], in test [1], the “Carbohydrate Screening Results, Bacteria Code F” value is recorded as “Y”. In addition, the “Carbohydrate Screening Results, Bacteria Code B” value in test [3] (setting [5]) is “Y”. Take `N[C@H]1C(O)O[C@H](CO)[C@@H](O)[C@@H]1O` (stereo partly drawn) [D-Glucosamine]: the “Carbohydrate Screening Results, Bacteria Code F” value in test [1] is “Y”. The “Carbohydrate Screening Results, Bacteria Code C” value in test [2] is on record as “Y”. `N[C@@H](CC(=O)O)C(=O)O` [L-Aspartic Acid]: in test [3] (setting [5]), the “Carbohydrate Screening Results, Bacteria Code B” value was “Y”. Also, the “Carbohydrate Screening Results, Bacteria Code C” value in test [2] is on record as “Y”. In the case of `CCCC(=O)O` [Butyric Acid], in test [1], the “Carbohydrate Screening Results, Bacteria Code F” value is listed as “Y”. As to `O[C@H]1[C@H](O)[C@@H](O)[C@H](O)[C@@H](O)[C@H]1O` [m-Inositol], in test [3] (setting [5]), the “Carbohydrate Screening Results, Bacteria Code B” value is “Y”. In addition, the “Carbohydrate Screening Results, Bacteria Code C” value in test [2] is on record as “Y”. Moreover, the “Carbohydrate Screening Results, Bacteria Code E” value in test [4] is recorded as “Y”.

For `N[C@@H](CCC(=O)O)C(=O)O` [L-Glutamic Acid], the “Carbohydrate Screening Results, Bacteria Code F” value in test [1] was “Y”. In addition, the “Carbohydrate Screening Results, Bacteria Code B” value in test [3] (ATCC33033, 36 h) is on record as “Y”. As for `NC(=O)CC[C@H](N)C(=O)O` [L-Glutamine], the “Carbohydrate Screening Results, Bacteria Code B” value in test [3] (setting [5]) is “Y”. Further, the “Carbohydrate Screening Results, Bacteria Code C” value in test [2] was “Y”. Regarding `O=C1O[C@H]([C@@H](O)CO)[C@@H](O)[C@@H]1O` [L-Galactonic Acid-γ-Lactone], the “Carbohydrate Screening Results, Bacteria Code B” value in test [3] (setting [5]) is recorded as “Y”. In addition, the “Carbohydrate Screening Results, Bacteria Code C” value in test [2] is listed as “Y”.

Take `O=C(O)Cc1cccc(O)c1` [m-Hydroxy Phenyl Acetic Acid]: the “Carbohydrate Screening Results, Bacteria Code C” value in test [2] is “Y”. As to `CCCCCC(=O)O` [Caproic Acid], in test [1], the “Carbohydrate Screening Results, Bacteria Code F” value is “Y”.

With `COC1OC(CO)C(O)C(O)C1O` [α-Methyl-D-Galactoside], the “Carbohydrate Screening Results, Bacteria Code B” value in test [3] (setting [5]) is listed as “Y”. Also, in test [2], the “Carbohydrate Screening Results, Bacteria Code C” value is “Y”. Besides, the “Carbohydrate Screening Results, Bacteria Code E” value in test [4] is recorded as “Y”. As for `CCCCCCCCCC(=O)O` [Capric Acid], in test [1], the “Carbohydrate Screening Results, Bacteria Code F” value is listed as “Y”. For the molecule `O=C[C@@H](O)[C@H](O[C@@H]1O[C@H](CO)[C@H](O)[C@H](O)[C@H]1O)[C@H](O)CO` [3-0-β-D-Galacto-pyranosyl-D-Arabinose], in test [2], the “Carbohydrate Screening Results, Bacteria Code C” value is listed as “Y”. On to `C[C@H](O)[C@@H](O)[C@@H](O)[C@H](O)C=O` [L-Fucose], for which the “Carbohydrate Screening Results, Bacteria Code B” value in test [3] (setting [5]) is recorded as “Y”. Also, in test [2], the “Carbohydrate Screening Results, Bacteria Code C” value is listed as “Y”. Also, the “Carbohydrate Screening Results, Bacteria Code E” value in test [4] is “Y”.

Consider `COC(=O)[C@@H](C)O` [D-Lactic Acid Methyl Ester], for which the “Carbohydrate Screening Results, Bacteria Code C” value in test [2] is on record as “Y”. For the molecule `CC(O)(CC(=O)O)C(=O)O` (stereo not drawn) [Citramalic Acid], the “Carbohydrate Screening Results, Bacteria Code F” value in test [1] was “Y”. For `O=P(O)(O)O[C@H]1O[C@H](CO)[C@@H](O)[C@H](O)[C@H]1O` [D-Glucose-1-Phosphate], the “Carbohydrate Screening Results, Bacteria Code B” value in test [3] (setting [5]) is “Y”. Also, the “Carbohydrate Screening Results, Bacteria Code C” value in test [2] is “Y”. Further, the “Carbohydrate Screening Results, Bacteria Code E” value in test [4] is “Y”.

The values are drawn from US20210308034A1, “PREBIOTIC COMPOSITIONS AND METHODS FOR MAINTAINING A HEALTHY SKIN MICROBIOTA” (KIMBERLY-CLARK WORLDWIDE, INC., priority 2018, published 2021).
